Results on 5 molecules are retold here after patent US8377944B2, “Thienopyrimidine derivatives” (ASKA Pharmaceutical Co., Ltd., priority 2005, dated 2013).

The subject of the experiment is model of urethral obstruction with the guinea pigs. In words: Dysuria pathological model (urethral obstruction), cystometry. The following applies: for Frequency of non-voiding contraction, pre-administration / Residual urine volume, pre-administration: baseline before administration; for Frequency of non-voiding contraction, pre-administration / Frequency of non-voiding contraction, post-administration / Residual urine volume, post-administration / Residual urine volume, pre-administration: mean; for Frequency of non-voiding contraction, post-administration / Residual urine volume, post-administration: up to 30 min after administration; for Frequency of non-voiding contraction, quantitative change / Residual urine volume, quantitative change: post minus pre. The format is in vivo, guinea pig. On the procedure:
(3) Investigation of PDE9 Inhibitory Activity on Dysuria Pathological Model
Three to four weeks old female Hartley strain guinea pigs (Nippon SLC) were laparotomized under anesthesia with pentobarbital (30 mg/kg i.p.), and a polyethylene tube of 1.4 mm in width and 2.0 mm in inner diameter was placed in each guinea pig's urethra to the distal side by 1-2 mm from the bladder neck. After closing the incision, the guinea pigs were reared for at least 3 weeks to provide a model of urethral obstruction with the guinea pigs in which rise in intravesical pressure not accompanied by voiding (non-voiding contraction) and residual urine were induced.
The model was catheterized under anesthesia with urethane (1 g/kg i.p.) at the apex of urinary bladder and right jugular vein for cystometrography and intravenous administration, respectively. The other end of the bladder catheter was connected to a pressure transducer and infusion pump through three way stopcock. By means of the infusion pump, physiological saline was continuously infused into the bladder at a rate of 0.4 mL/min to induce micturition reflex. Immediately after the micturition reflex was induced, the physiological saline infusion into the bladder was stopped. The intravesical pressure at the time the micturition occurred was measured with the pressure transducer and the cystometrogram was recorded with pen recorder. The urine voided was collected with a disposable type weighing dish to measure its weight. Further the physiological saline remained in the bladder was sucked with syringe through the bladder catheter to measure the residual urine volume. Multiple operation cycles (normally 4 times) of suspending physiological saline infusion when micturition reflex was induced and resuming the infusion after about 1 minute to induce next micturition reflex, were repeated to stabilize the voiding response.
Also the frequency of non-voiding contraction occurred during the operations was measured. The respective mean values of frequency of non-voiding contraction and residual urine volume in the experiment using several guinea pigs are shown in the following Table B.

Structures are written as SMILES.

For the molecule `Cc1c(C(=O)O)sc2nc(Cc3cccc(Cl)c3)[nH]c(=S)c12` [Example 112, 2-(3-Chlorobenzyl)-5-methyl-4-thioxo-3,4-dihydrothieno-[2,3-d]pyrimidine-6-carboxylic acid], for the setting “0.3 mg/kg i.v.”, the “Frequency of non-voiding contraction, pre-administration” value came out at 1.12 count/min; the “Frequency of non-voiding contraction, post-administration” value worked out at 1.02 count/min; the “Residual urine volume, post-administration” value amounted to 0.91 mL. In addition, under “3 mg/kg i.v.”, the “Frequency of non-voiding contraction, pre-administration” value was found to be 1.12 count/min; the “Residual urine volume, pre-administration” value worked out at 1.02 mL; the “Frequency of non-voiding contraction, post-administration” value was 0.76 count/min; the “Residual urine volume, post-administration” value worked out at 0.27 mL. Further, where the note is “10 mg/kg i.v.”, the “Frequency of non-voiding contraction, pre-administration” value was found to be 1.12 count/min; the “Residual urine volume, pre-administration” value was 1.02 mL; the “Frequency of non-voiding contraction, post-administration” value was 0.59 count/min; the “Residual urine volume, post-administration” value is reported as 0.48 mL.

On to `O=C(O)c1cc2c(=O)[nH]c(Cc3cccc(Cl)c3)nc2s1` [Example 104, 2-(3-Chlorobenzyl)-4-oxo-3,4-dihydrothieno[2,3-d]pyrimidine-6-carboxylic acid], for which, where the note is “0.3 mg/kg i.v.”, the “Frequency of non-voiding contraction, pre-administration” value came out at 1.08 count/min; the “Residual urine volume, pre-administration” value is 1.54 mL; the “Frequency of non-voiding contraction, quantitative change” value is listed as −0.53 count/min; the “Residual urine volume, quantitative change” value is -0.52 mL. Also, where the note is “0.3 mg/kg i.v.”, the “Frequency of non-voiding contraction, post-administration” value came to 0.55 count/min and the “Residual urine volume, post-administration” value amounted to 1.02 mL. Where the note is “3 mg/kg i.v.”, the “Frequency of non-voiding contraction, pre-administration” value worked out at 1.44 count/min; the “Residual urine volume, pre-administration” value is listed as 1.37 mL; the “Frequency of non-voiding contraction, quantitative change” value is on record as −0.66 count/min; the “Residual urine volume, quantitative change” value is -0.49 mL. Under “3 mg/kg i.v.”, the “Frequency of non-voiding contraction, post-administration” value was 0.78 count/min and the “Residual urine volume, post-administration” value came to 0.88 mL. Moreover, where the note is “10 mg/kg i.v.”, the “Frequency of non-voiding contraction, pre-administration” value was found to be 1.57 count/min; the “Residual urine volume, pre-administration” value is on record as 1.68 mL; the “Frequency of non-voiding contraction, quantitative change” value is reported as −0.74 count/min; the “Residual urine volume, quantitative change” value was -1.06 mL. Besides, for the setting “10 mg/kg i.v.”, the “Frequency of non-voiding contraction, post-administration” value was determined as 0.83 count/min and the “Residual urine volume, post-administration” value is given as 0.62 mL.

Turning to `Cc1c(C(=O)O)sc2nc(Cc3ccc(Cl)c(Cl)c3)[nH]c(=O)c12` [Example 36, 2-(3,4-Dichlorobenzyl)-5-methyl-4-oxo-3,4-dihydrothieno-[2,3-d]pyrimidine-6-carboxylic acid], for the setting “1 mg/kg i.v.”, the “Frequency of non-voiding contraction, pre-administration” value amounted to 0.96 count/min; the “Residual urine volume, pre-administration” value was determined as 0.82 mL; the “Frequency of non-voiding contraction, post-administration” value came to 0.79 count/min; the “Residual urine volume, post-administration” value was found to be 0.86 mL. Besides, for the setting “3 mg/kg i.v.”, the “Frequency of non-voiding contraction, pre-administration” value came to 1.16 count/min; the “Residual urine volume, pre-administration” value was 1.33 mL; the “Frequency of non-voiding contraction, post-administration” value amounted to 0.77 count/min. Moreover, under “10 mg/kg i.v.”, the “Frequency of non-voiding contraction, pre-administration” value is 1.11 count/min; the “Residual urine volume, pre-administration” value is reported as 1.06 mL; the “Frequency of non-voiding contraction, post-administration” value is 0.64 count/min; the “Residual urine volume, post-administration” value is recorded as 0.64 mL.

As for `Cc1c(C(=O)O)sc2nc(Cc3cccc(Cl)c3)[nH]c(=O)c12` [Example 10, 2-(3-Chlorobenzyl)-5-methyl-4-oxo-3,4-dihydrothieno-[2,3-d]pyrimidine-6-carboxylic acid], for the setting “0.3 mg/kg i.v.”, the “Frequency of non-voiding contraction, pre-administration” value came to 1.16 count/min; the “Residual urine volume, pre-administration” value is 0.95 mL; the “Frequency of non-voiding contraction, post-administration” value turned out to be 0.80 count/min. Under “3 mg/kg i.v.”, the “Frequency of non-voiding contraction, pre-administration” value came to 1.16 count/min; the “Residual urine volume, pre-administration” value stood at 0.95 mL; the “Frequency of non-voiding contraction, post-administration” value stood at 0.49 count/min. Besides, where the note is “10 mg/kg i.v.”, the “Frequency of non-voiding contraction, pre-administration” value was determined as 1.16 count/min; the “Frequency of non-voiding contraction, post-administration” value is 0.60 count/min; the “Residual urine volume, post-administration” value came out at 0.95 mL.

As for `Cc1c(C(=O)O)sc2nc(Cc3cccs3)[nH]c(=O)c12` [Example 2, 5-Methyl-4-oxo-2-(thiophen-2-ylmethyl)-3,4-dihydrothieno[2,3-d]pyrimidine-6-carboxylic acid], where the note is “1 mg/kg i.v.”, the “Frequency of non-voiding contraction, pre-administration” value was determined as 0.91 count/min; the “Residual urine volume, pre-administration” value worked out at 1.27 mL; the “Frequency of non-voiding contraction, post-administration” value was determined as 0.47 count/min. Also, where the note is “10 mg/kg i.v.”, the “Frequency of non-voiding contraction, pre-administration” value worked out at 0.91 count/min; the “Residual urine volume, pre-administration” value came to 1.27 mL; the “Frequency of non-voiding contraction, post-administration” value amounted to 0.78 count/min.
